Reference: US20210145768A1, “MODULATING IMMUNE RESPONSE VIA TARGETING OF OLFACTORY RECEPTOR ACTIVITY” (La Jolla Institute for Allergy and Immunology, priority 2018, published 2021)
“Also recorded” adds a separate entry of the source.

Key:
Olfr2 [1] = molecular target: T1, Olfr2 (Mus musculus, UniProt Q9QWU6); test: Inflammatory gene expression (real time PCR) in explanted whole aortas treated with octanal, citral, LPS; assay type: cell-based; parameters: Olfr2 expression was confirmed at the protein level on F4/80^+ vascular macrophages; from tissue; host or cells: explanted whole aortas, digested aortic cell suspensions (F4/80+ vascular macrophages) and blood monocytes of Apoe-/- C57BL/6J mice; living Apoe-/- mice for the in vivo study; details: for octanal-induced increase in CCL2, CCL4, TNF and iNOS (Nos2) expression: citral 100 μM with octanal 10 μM, in presence and absence of LPS; for mRNA expression of Ccl2, Ccl4, Tnf and Nos2 (iNOS): explanted whole aortas of Apoe−/− mice on WD 2 weeks, octanal 10 μM alone, normalized to Gapdh and untreated control
T1 sequence (Q9QWU6 1-327): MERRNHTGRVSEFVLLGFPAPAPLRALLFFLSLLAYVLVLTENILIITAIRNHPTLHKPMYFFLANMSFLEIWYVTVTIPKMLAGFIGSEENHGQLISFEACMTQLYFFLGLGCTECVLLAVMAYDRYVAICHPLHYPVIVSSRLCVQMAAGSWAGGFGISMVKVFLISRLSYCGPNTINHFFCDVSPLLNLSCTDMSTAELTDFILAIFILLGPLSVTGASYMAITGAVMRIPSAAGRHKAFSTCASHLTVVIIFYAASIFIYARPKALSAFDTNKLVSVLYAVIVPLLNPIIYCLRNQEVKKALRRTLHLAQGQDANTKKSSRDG
Procedure: Gene expression analysis was performed by harvesting whole aortas from apoE^−/− mice kept on western diet (WD) for 2 weeks and treating for 12h with DMSO (Ctrl), citral (Cit, 100 μM), octanal (Oct, 10 μM in DMSO) or lipopolysaccharide (lps, 0.5 μg/mL in DMSO) alone or in combination. After the incubation, aortas were transferred in Trizol reagent (1 ml) and digested with gentleMACS™ Dissociator (Millteny). Total RNA was then purified with RNAse Micro kit (Qiagen) and reverse transcribed using the Omniscript reverse transcriptase kit (Qiagen). Real-time PCR reaction was performed following the RT^2 Sybr green gene expression assay protocol (Qiagen). RT2 SYBR Green qPCR mastermix mix and premade RT^2 qPCR Primer Assay for mouse GAPDH, CCL2, CCL4, TNF, and iNOS were used. Data were normalized to the expression levels of the housekeeping gene GAPDH.
To test physiologic effects of Olfr2 activation in situ, explanted whole aortas of mice (n=5 per group) were treated with octanal with or without LPS. Briefly, whole aortas were left untreated or incubated with the Olfr2 agonist octanal (Oct, 10 μM), LPS, (500 ng/mL), or with both for 12 h. Quantitative Real time PCR reaction was performed to detect Ccl2, Ccl4, Tnf, and Nos2 gene expression. Relative expression was normalized to Gapdh expression and the untreated control. […] TNF secretion by vascular macrophages (F4/80+) was confirmed by intracellular staining using flow cytometry (FIG. 7F).
Apoe^−/− mice were fed WD for 2 weeks before sacrifice for aorta explant culture. Whole aortas were incubated in culture medium with DMSO (0.1% as a vehicle), octanal (Oct, 10 μM), LPS (500 ng/mL) alone or octanal and LPS combined (LPS+Oct) for 12 h at 37° C. and 5% CO2. Subsequently, aortas were collected and further processed as below discussed for RNA extraction, and flow cytometry analysis. Culture supernatants were collected, aliquoted, and frozen at −80° C. until further analysis.
BMDMs and hMDMs were incubated in culture media for 12 h at 37° C. and 5% CO2 with Oct, (10 μM), LPS (500 ng/mL) alone or combined with Oct (LPS+Oct) and DMSO (0.1%) as a control and lysed with Qiazol (500 μL; Qiagen) Similarly, whole aortas incubated as previously described were transferred into Qiazol (500 μl; Qiagen) and digested with gentleMACS™ Dissociator (Miltenyi).
RNA extraction was performed using a Qiazol/RNAeasy micro kit hybrid protocol (Qiagen).
Total RNA was quantified using a nanodrop spectrophotometer (Peqlab) and 500 ng were reverse transcribed into cDNA using Omniscript reverse transcriptase (Qiagen). Real time PCR reactions were performed according to the RT^2 SYBR green gene expression assay protocol (Qiagen). RT2 SYBR Green qPCR master mix and premade RT^2 qPCR Primer Assays for mouse Olfr2, Rtp1, Rtp2, Ccl2, Ccl4, Tnf, Nos2 and Gapdh were used. Similarly, real time PCR analysis of hMDMs samples was performed following the RT^2 SYBR green gene expression assay protocol (Qiagen), applying RT^2 SYBR Green qPCR master mix and premade RT^2 qPCR Primer Assays for human OR6A2, TNF, IL-6, NOS2 and GAPDH. The results were calculated applying the 2^−ΔΔCT method^32 using Gapdh/GAPDH as housekeeping gene.

Olfr2 [2] = molecular target: T1, Olfr2; test: IL-1β production in LPS-primed mouse BMDMs; assay type: cell-based; parameters: Olfr2 expression was confirmed at the protein level on F4/80^+ vascular macrophages; from tissue; host or cells: explanted whole aortas, digested aortic cell suspensions (F4/80+ vascular macrophages) and blood monocytes of Apoe-/- C57BL/6J mice; living Apoe-/- mice for the in vivo study
Procedure: Macrophages are known producers of one of the most prominent cytokines driving atherosclerosis, IL-1β^29. IL-1β production and secretion requires assembly of the inflammasome, a cytoplasmic complex containing several proteins that serves as a molecular platform for activation of the cysteine protease caspase^30,31. To test whether octanal induced IL-1β secretion in macrophages, BMDMs were primed with low-dose LPS (50 ng/mL) for 18 h followed by exposure to octanal alone or together with citral. IL-1β protein in the supernatant was quantified by a cytokine bead array. Data are presented as mean±SEM. *p<0.05, **p<0.01, ***p<0.005, ****p<0.001. p calculated by One-Way ANOVA test, Tukey's multiple comparisons test and unpaired t-test.
Mouse BMDMs and human MDMs were pretreated with LPS (50 ng/mL) or left untreated for 18 h at 37° C. and 5% CO2. […]
Supernatants of stimulated cells and aortic tissue were analyzed by BD CBA Flex Sets (BD Biosciences) for mouse TNFα, CCL2, CCL4, IL-1β, or human TNF, IL6, and IL-1β according to the manufacturer's protocol. Samples were analyzed with LSR-II (BD Biosciences). Data was acquired with FACSDiva software (BD Biosciences) and analyzed with FCAP array software 3.0 (BD Biosciences).

SMILES | octanal-induced increase in CCL2, CCL4, TNF and iNOS (Nos2) expression (Olfr2 [1]; explanted aortas, 12 h) | octanal-induced increase in CCL2, CCL4, TNF and iNOS (Nos2) expression (Olfr2 [1]; explanted aortas, 12 h, listed as Cit) | octanal-induced IL-1β release, mouse BMDMs (Olfr2 [2]; LPS priming, octanal 10 μM + citral 100 μM) | LPS-induced expression of inflammatory molecules (Ccl2, Ccl4, Tnf, Nos2) (Olfr2 [1]; explanted aortas, octanal 10 μM + LPS 500 ng/mL, 12 h) | mRNA expression of Ccl2, Ccl4, Tnf and Nos2 (iNOS) (Olfr2 [1]; 12 h) | mRNA expression of Ccl2, Ccl4, Tnf and Nos2 (iNOS) (Olfr2 [1]; 12 h, listed as Oct) | LPS induction of CCL2 (MCP-1) and CCL4 (Olfr2 [1]; qRT-PCR, octanal + LPS) | iNOS expression induced by LPS (Olfr2 [1]; qRT-PCR, octanal + LPS) | TNF expression (Olfr2 [1]; qRT-PCR, octanal + LPS, Olfr2 ligation required to reveal LPS-induced increase) | CCL2 and CCL4 expression (Olfr2 [1]; qRT-PCR, octanal alone (without LPS)) | release of IL-1β into the supernatant, mouse BMDMs (Olfr2 [2]; LPS 50 ng/mL 18 h priming, then octanal 10 μM)
CC(C)=CCCC(C)=CC=O [citral] | completely blocked; also recorded: effective at curbing inflammatory mediator expression | reduced | inhibited |  |  |  |  |  |  |  | 
CCCCCCCC=O [octanal] |  |  |  | exacerbate the inflammatory response; also recorded: significantly enhances; also recorded: enhanced the LPS-induced expression | induces expression of inflammatory mediators; also recorded: induced mRNA expression | induces pro-inflammatory gene expression | significantly enhanced | greatly enhanced | greatest effect | measurable increase | strongly increased
